# How the values were obtained:
# [1] = human subjects; Donovan et al., Spinal Cord 2000; cited from earlier work
# [2] = test system: rats with middle cerebral artery occlusion (MCAO); experiment: Body swing test, MCAO rats, dose escalation study (Example 17); type: in vivo, Sprague Dawley rat; conditions: groups diverged prior to treatment initiation (FIG. 13)
# Description: Body Swing: Evaluated at Day −1 (pre-operation), Day 1, Day 7, Day 14, Day 21, Day 28, Day 30, Day 32, Day 42, Day 44, Day 46, Day 56, Day 58, Day 60. Body swing was evaluated by counting head movements to one side or the other when suspended by tail. For this test, the rat was held approximately one (1) inch from the base of its tail. It was then elevated to an inch above a surface of a table. The rat was held in the vertical axis, defined as no more than 10° to either the left or the right side. A swing was recorded whenever the rat moved its head out of the vertical axis to either side. Before attempting another swing, the rat had to return to the vertical position for the next swing to be counted. Thirty (30) total swings were counted. […] Body swing scores were expressed as a percentage of rightward over total swings. […]
# 4-AP was evaluated for its ability to promote functional sensorimotor improvement following ischemic stroke in rats with stable motor deficits at times remote from their ischemic events. […]
# Body Swing: Evaluated at Day −1 (pre-operation), Day 1, Day 7, Day 14, Day 21, Day 28, Day 35, Day 42, Day 49, Day 56, Day 59, Day 62, Day 65, Day 70. […]
# Statistical Methods: Changes from pre-treatment baseline values (Day 56) were calculated for each behavioral score at each time point assessed after dosing. […]
# [3] = Hayes et al., J. Clin. Pharmacol. 2003; cited from earlier work
# [4] = test system: rats with middle cerebral artery occlusion (MCAO); experiment: Infarct volume measurement (H&E), MCAO rats (Example 2); type: in vivo, Sprague Dawley rat; conditions: Day 63
# Description: Euthanasia and post-mortem processing: Infarct Volume analysis. After the last behavioral assessment, rats were anesthetized deeply with ketamine/xylazine (100 mg/kg ketamine, 10 mg/kg xylazine, i.p.) and perfused transcardially with normal saline (with heparin 2 unit/ml) followed by 4% paraformaldehyde or formalin on Day 63. Brains were harvested and processed for histological assessment. A subset of 10 brains per group was processed for infarct volume measurement (H&E staining).
# Infarct measurement: Brains were embedded in paraffin and 5 micron thick coronal sections were cut using a microtome. Sections were stained with hematoxylin and eosin (H&E), using standard methods. Seven coronal sections (+4.7, +2.7, +0.7, −1.3, −3.3, −5.3 and −7.3, compared to bregma respectively) from each brain were photographed by a digital camera, and the infarct area on each slice was determined by NIH Image (Image J) using the “indirect method” (area of the intact contralateral [left] hemisphere−area of intact regions of the ipsilateral [right] hemisphere) to correct for brain edema. Infarct areas were then summed among slices and multiplied by slice thickness (the distance between sections) to give total infarct volume, which was expressed as a percentage of intact contralateral hemispheric volume.
compound,measurement,setting,value
Nc1ccncc1 [4-aminopyridine],delay in the peak concentration in cerebrospinal fluid compared to that in the blood,[1],approximately an hour
same,Body swing performance,[2],no conclusions can be drawn
same,half life,[3],1 to 1.5 h
same,Mean infarct volume (% of contralateral hemisphere),"[4]; Group 1 (sequence high, low, vehicle)",45.0 (±1.8) %
same,Mean infarct volume (% of contralateral hemisphere),"[4]; Group 2 (sequence low, vehicle, high)",41.4 (±2.3) %
same,Mean infarct volume (% of contralateral hemisphere),"[4]; Group 3 (sequence vehicle, high, low)",39.0 (±3.3) %
